Experiments:
Plasmodium falciparum [1] = test: Antimalarial activity against PYR-resistant Plasmodium falciparum V1/S expressing DHFR N51I/C59R/S108N/I164L quadruple mutant by [3H]-hypoxanthine incorporation assay
[2] = Inhibition of Plasmodium falciparum DHFR N51I/C59R/S108N/I164L quadruple mutant
in vitro [3] = details: rat, liver microsomes
Description: Intrinsic clearance in rat liver microsomes incubated up to 60 mins in presence of NADPH by LC-MS/MS analysis

[4] = Cytotoxicity against African green monkey Vero cells assessed as reduction in cell viability
in vitro [5] = details: human, liver microsomes
Description: Intrinsic clearance in human liver microsomes incubated up to 60 mins in presence of NADPH by LC-MS/MS analysis

Plasmodium falciparum [6] = test: Antimalarial activity against PYR-sensitive Plasmodium falciparum TM4/8.2 expressing wild type DHFR by [3H]-hypoxanthine incorporation assay; details: TM4/8.2, 3 h
[7] = Selectivity index, ratio of IC50 for cytotoxicity against African green monkey Vero cells to IC50 for antimalarial activity against PYR-resistant Plasmodium falciparum V1/S expressing DHFR N51I/C59R/S108N/I164L quadruple mutant
Plasmodium falciparum [8] = test: Antimalarial activity against PYR-sensitive Plasmodium falciparum TM4/8.2 expressing wild type DHFR incubated for 24 hrs by [3H]-hypoxanthine incorporation assay
physchem = details: octanol/phosphate buffer, pH 7.4
Description: Lipophilicity, log D of the compound in octanol/phosphate buffer at pH 7.4 at 100 uM incubated for 2 hrs by HPLC analysis

[9] = Cytotoxicity against African green monkey Vero cells assessed as reduction in cell viability incubated for 72 hrs by sulforhodamine B assay
[10] = Inhibition of wild type Plasmodium falciparum DHFR N51I/C59R/S108N/I164L quadruple mutant expressed in Escherichia coli BL21(DE3) pLysS cells assessed as inhibition constant using DHF as substrate measured for 80 sec in presence of NADPH
[11] = target: Bifunctional dihydrofolate reductase-thymidylate synthase (Plasmodium falciparum K1, UniProt P13922); test: Inhibition of wild type Plasmodium falciparum DHFR expressed in Escherichia coli BL21(DE3) pLysS cells assessed as inhibition constant using DHF as substrate measured for 80 sec in presence of NADPH
Plasmodium falciparum [12] = test: Antimalarial activity against PYR-resistant Plasmodium falciparum V1/S expressing DHFR N51I/C59R/S108N/I164L quadruple mutant infected in human erythrocytes incubated for 24 hrs by [3H]-hypoxanthine incorporation assay
Dihydrofolate reductase = target: T1, Dihydrofolate reductase (Homo sapiens, UniProt P00374); test: Inhibition of human DHFR expressed in Escherichia coli BL21(DE3) pLysS cells assessed as inhibition constant using DHF as substrate measured for 80 sec in presence of NADPH
T1 sequence (P00374 whole entry): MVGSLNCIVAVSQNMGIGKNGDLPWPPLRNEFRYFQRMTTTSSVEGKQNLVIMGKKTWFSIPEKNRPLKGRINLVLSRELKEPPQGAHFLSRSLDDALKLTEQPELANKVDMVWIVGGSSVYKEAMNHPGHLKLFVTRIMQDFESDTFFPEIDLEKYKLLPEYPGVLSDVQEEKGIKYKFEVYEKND

Sequence of Bifunctional dihydrofolate reductase-thymidylate synthase (P13922 whole entry): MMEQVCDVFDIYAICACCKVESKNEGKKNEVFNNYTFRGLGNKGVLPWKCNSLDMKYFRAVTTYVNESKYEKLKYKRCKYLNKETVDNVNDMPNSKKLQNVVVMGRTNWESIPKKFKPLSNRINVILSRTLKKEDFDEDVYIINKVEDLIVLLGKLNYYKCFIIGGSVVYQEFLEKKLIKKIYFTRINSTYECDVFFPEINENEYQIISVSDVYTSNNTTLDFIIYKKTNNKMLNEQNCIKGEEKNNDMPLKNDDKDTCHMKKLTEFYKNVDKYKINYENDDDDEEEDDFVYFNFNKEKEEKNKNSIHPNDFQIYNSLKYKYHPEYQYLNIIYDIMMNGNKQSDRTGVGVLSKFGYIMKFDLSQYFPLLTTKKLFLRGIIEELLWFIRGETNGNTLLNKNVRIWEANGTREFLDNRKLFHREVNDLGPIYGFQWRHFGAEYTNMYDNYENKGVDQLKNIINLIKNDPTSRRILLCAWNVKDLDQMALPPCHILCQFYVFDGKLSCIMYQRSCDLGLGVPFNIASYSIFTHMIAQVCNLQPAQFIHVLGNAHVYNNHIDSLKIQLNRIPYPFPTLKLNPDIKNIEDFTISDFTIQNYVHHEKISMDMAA

| SMILES | IC50 (Plasmodium falciparum [1]) | Ki [2] | microsomal CLint at 1 h (in vitro [3]) | IC50 [4] | microsomal CLint at 1 h (in vitro [5]) | IC50 (Plasmodium falciparum [6]) | selectivity ratio [7] | IC50 (Plasmodium falciparum [8]) | logD at 2 h, 100 µM (physchem) | IC50 at 72 h [9] | Ki [10] | Ki [11] | IC50 (Plasmodium falciparum [12]) | Ki (Dihydrofolate reductase) |
| --- | --- | --- | --- | --- | --- | --- | --- | --- | --- | --- | --- | --- | --- | --- |
| CCc1nc(N)nc(N)c1OCCCOc1ccccc1CCC(=O)O | 56 nM | 0.54 nM | < 3 µL/min/mg | > 100000 nM | < 3 µL/min/mg | 5 nM | – | – | – | – | – | – | – | – |
| CCOC(=O)c1ccc(-c2ccc(OCCCCOc3c(N)nc(N)nc3CC)cc2)cc1 | – | – | – | – | – | – | > 2.2 | 225 nM | > 2.5 | > 50000 nM | 0.99 nM | 0.67 nM | 22800 nM | > 250000 nM |

Reference: ChEMBL document CHEMBL5584290, “Novel flexible biphenyl PfDHFR inhibitors with improved antimalarial activity” (RSC Med Chem, 2024)
